Test results taken from patent publication US12643910B2, “Substituted pyrazolo[3,4-b]pyridines as ectonucleotide pyrophosphatase/phosphodiesterase 1 (ENPP1) modulators” (SANFORD BURNHAM PREBYS MEDICAL DISCOVERY INSTITUTE, priority 2019, dated 2026).

Tests used:
ENPP3 = molecular target: T1, ENPP3 (Homo sapiens, UniProt O14638); assay: ENPP3 Km ATP assay; type: biochemical; conditions: ATP at Km
T1 sequence (O14638 1-875): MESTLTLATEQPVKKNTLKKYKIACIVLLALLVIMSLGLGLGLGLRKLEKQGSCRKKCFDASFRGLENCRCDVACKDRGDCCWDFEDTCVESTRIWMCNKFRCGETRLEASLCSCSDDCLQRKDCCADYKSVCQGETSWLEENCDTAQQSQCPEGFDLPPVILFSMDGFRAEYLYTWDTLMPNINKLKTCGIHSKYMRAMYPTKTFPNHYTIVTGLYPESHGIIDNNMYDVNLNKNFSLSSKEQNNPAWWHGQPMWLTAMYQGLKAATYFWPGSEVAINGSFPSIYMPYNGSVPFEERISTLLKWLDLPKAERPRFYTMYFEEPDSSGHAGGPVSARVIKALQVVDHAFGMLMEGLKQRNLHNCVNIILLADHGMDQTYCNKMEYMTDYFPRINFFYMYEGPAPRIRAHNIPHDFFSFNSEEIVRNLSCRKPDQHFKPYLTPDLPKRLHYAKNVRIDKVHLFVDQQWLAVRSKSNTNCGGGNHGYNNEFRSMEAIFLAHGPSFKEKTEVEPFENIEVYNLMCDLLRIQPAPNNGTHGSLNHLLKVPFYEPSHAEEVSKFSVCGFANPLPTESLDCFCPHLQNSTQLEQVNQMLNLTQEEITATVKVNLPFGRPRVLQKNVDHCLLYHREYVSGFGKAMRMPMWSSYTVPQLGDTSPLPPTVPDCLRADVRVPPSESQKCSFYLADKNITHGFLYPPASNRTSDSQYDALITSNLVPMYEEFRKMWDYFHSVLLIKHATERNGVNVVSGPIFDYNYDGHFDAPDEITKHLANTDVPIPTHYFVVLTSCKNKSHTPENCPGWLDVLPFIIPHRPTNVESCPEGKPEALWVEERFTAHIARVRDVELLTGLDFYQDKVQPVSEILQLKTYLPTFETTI

human ENPP1 = molecular target: T2, human ENPP1 (Homo sapiens, UniProt P22413); assay: ENPP1 assay with ATP substrate (Transcreener AMP2/GMP2 TR-FRET); type: biochemical; conditions: 1 hour at room temperature
T2 construct: made in house
T2 sequence (P22413 1-925): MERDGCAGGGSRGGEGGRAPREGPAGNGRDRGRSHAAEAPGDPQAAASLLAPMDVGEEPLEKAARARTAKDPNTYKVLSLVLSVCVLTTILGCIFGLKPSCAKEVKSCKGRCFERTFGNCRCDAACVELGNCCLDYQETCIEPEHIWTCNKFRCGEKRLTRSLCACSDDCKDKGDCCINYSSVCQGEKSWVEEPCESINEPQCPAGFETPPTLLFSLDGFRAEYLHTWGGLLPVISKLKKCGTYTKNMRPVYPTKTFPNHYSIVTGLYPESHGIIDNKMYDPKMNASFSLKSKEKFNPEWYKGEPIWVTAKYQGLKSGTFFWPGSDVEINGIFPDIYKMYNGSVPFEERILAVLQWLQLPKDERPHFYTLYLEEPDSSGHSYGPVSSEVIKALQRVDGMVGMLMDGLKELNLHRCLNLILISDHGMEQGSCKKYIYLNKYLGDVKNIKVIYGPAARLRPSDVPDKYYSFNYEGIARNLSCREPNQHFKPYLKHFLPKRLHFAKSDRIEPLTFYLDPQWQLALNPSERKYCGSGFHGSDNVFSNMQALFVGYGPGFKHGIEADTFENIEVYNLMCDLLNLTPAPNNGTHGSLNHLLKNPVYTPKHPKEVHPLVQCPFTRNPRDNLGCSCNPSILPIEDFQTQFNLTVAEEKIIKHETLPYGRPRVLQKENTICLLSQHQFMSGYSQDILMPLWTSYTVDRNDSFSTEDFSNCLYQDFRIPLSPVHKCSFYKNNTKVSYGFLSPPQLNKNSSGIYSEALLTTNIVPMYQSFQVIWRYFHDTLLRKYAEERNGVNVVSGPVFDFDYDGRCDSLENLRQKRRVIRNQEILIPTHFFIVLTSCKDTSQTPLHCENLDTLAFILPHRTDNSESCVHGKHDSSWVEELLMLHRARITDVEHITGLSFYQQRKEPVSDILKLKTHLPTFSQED
Outline: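 5′-AMP from ATP hydrolysis (300 nM ATP stock added; enzyme added as 8.5 μM stock) detected by competitive TR-FRET. Buffer: 50 mM Tris pH 7.5, 1 mM TCEP, 2 mM MgCl2, 0.005% Tween 20, 1% DMSO. Reaction 1 h at room temperature, EDTA stop. IC50 from 2-parameter variable-slope fit.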

| Structure (SMILES) | IC50 (ENPP3) [µM] | IC50 (human ENPP1) [µM] |
| --- | --- | --- |
| c1ccc(CNc2nc(-c3ccccn3)nc3scc(-c4ccccc4)c23)cc1 [Example 1.5, N-Benzyl-5-phenyl-2-(pyridin-2-yl)thieno[2,3-d]pyrimidin-4-amine] | > 20 | > 20 |
| Cn1ncc2c(NCc3ccc(S(N)(=O)=O)cc3)nccc21 [Example 2.66, 4-(((1-Methyl-1H-pyrazolo[4,3-c]pyridin-4-yl)amino)methyl)benzenesulfonamide] | 1 to 20 | 1 to 20 |
| Cc1cccc(CCC(=O)NC2CCN(c3ncnc4c(C)csc34)CC2)c1 [Example 3.15, N-(1-(7-Methylthieno[3,2-d]pyrimidin-4-yl)piperidin-4-yl)-3-(m-tolyl)propanamide] | > 20 | > 20 |
| NS(=O)(=O)c1ccc(COc2ncnc3scc(-c4ccccc4)c23)cc1 [Example 1.70, 4-((5-Phenylthieno[2,3-d]pyrimidin-4-yl)oxymethyl)benzenesulfonamide] | 1 to 20 | 0.1 to 1 |
| Cc1csc2c(N3CCC(NCCCc4ccncc4)CC3)nc(-c3ccccn3)nc12 [Example 3.56, 1-(7-Methyl-2-(pyridin-2-yl)thieno[3,2-d]pyrimidin-4-yl)-N-(3-(pyridin-4-yl)propyl)piperidin-4-amine] | > 20 | > 20 |
| Cn1nc(Br)c2c(NCc3ccc(S(N)(=O)=O)cc3)nc(N3CCCCC3)nc21 [Example 2.131, 4-((3-Bromo-1-methyl-6-piperidino-1H-pyrazolo[3,4-d]pyrimidin-4-yl)aminomethyl)benzenesulfonamide] | < 0.1 | 1 to 20 |
| Cc1nc(NCc2ccc(S(N)(=O)=O)cc2)c2c(C3CCCC3)nn(C)c2n1 [Example 2.135, 4-((3-Cyclopentyl-1,6-dimethyl-1H-pyrazolo[3,4-d]pyrimidin-4-yl)aminomethyl)benzenesulfonamide] | 1 to 20 | 1 to 20 |
| Cn1ncc2c(NCc3ccc(S(N)(=O)=O)nc3)ncnc21 [Example 2.52, 5-(((1-Methyl-1H-pyrazolo[3,4-d]pyrimidin-4-yl)amino)methyl)pyridine-2-sulfonamide] | 1 to 20 | < 0.1 |
| NS(=O)(=O)c1ccc(CNc2nc(-c3ccccn3)nc3scc(-c4ccccn4)c23)cc1 [Example 1.23, 4-(((2,5-Di(pyridin-2-yl)thieno[2,3-d]pyrimidin-4-yl)amino)methyl)benzenesulfonamide] | 1 to 20 | 0.1 to 1 |
| Cn1nc(Cl)c2c(NCc3ccc(S(N)(=O)=O)cc3)ncnc21 [Example 2.90, 4-((3-Chloro-1-methyl-1H-pyrazolo[3,4-d]pyrimidin-4-yl)aminomethyl)-benzenesulfonamide] | 0.1 to 1 | 0.1 to 1 |
| Cc1csc2c(N3CCC(NCCc4ccncc4)CC3)ncnc12 [Example 3.25, 1-(7-Methylthieno[3,2-d]pyrimidin-4-yl)-N-(2-(pyridin-4-yl)ethyl)piperidin-4-amine] | > 20 | 0.1 to 1 |
| COc1cc(S(N)(=O)=O)ccc1CNc1nc(-c2ccccn2)nc2scc(-c3ccccc3)c12 [Example 1.17, 3-Methoxy-4-(((5-phenyl-2-(pyridin-2-yl)thieno[2,3-d]pyrimidin-4-yl)amino)methyl)-benzenesulfonamide] | 1 to 20 | < 0.1 |
| Cc1cc(S(N)(=O)=O)ccc1CNc1ncnc2c1cnn2C [Example 2.2, 3-Methyl-4-(((1-methyl-1H-pyrazolo[3,4-d]pyrimidin-4-yl)amino)methyl)-benzenesulfonamide] | 1 to 20 | 0.1 to 1 |
| CN(C)c1nc(NCc2ccc(S(N)(=O)=O)cc2)c2c(-c3ccccc3)csc2n1 [Example 1.43, 4-(((2-(Dimethylamino)-5-phenylthieno[2,3-d]pyrimidin-4-yl)amino)methyl)-benzenesulfonamide] | 0.1 to 1 | < 0.1 |
| Cc1csc2c(N3CCC(NCCCc4ccccn4)CC3)ncnc12 [Example 3.3, 1-(7-Methylthieno[3,2-d]pyrimidin-4-yl)-N-(3-(pyridin-2-yl)propyl)piperidin-4-amine] | > 20 | 0.1 to 1 |
| CN(C)CCNc1nc(NCc2ccc(S(N)(=O)=O)cc2)c2c(-c3ccccc3)csc2n1 [Example 1.60, 4-((2-(2-Dimethylamino)ethylamino-5-phenylthieno[2,3-d]pyrimidin-4-yl)aminomethyl)-benzenesulfonamide] | < 0.1 | < 0.1 |
| Cn1ncc2c(NCc3ccc(S(N)(=O)=O)cc3)cc(Cl)nc21 [Example 2.73, 4-(((6-Chloro-1-methyl-1H-pyrazolo[3,4-b]pyridin-4-yl)amino)methyl)benzenesulfonamide] | < 0.1 | < 0.1 |
| Cc1csc2c(N3CCC(NCCCc4cccc(F)c4)CC3)ncnc12 [Example 3.41, N-(3-(3-Fluorophenyl)propyl)-1-(7-methylthieno[3,2-d]pyrimidin-4-yl)piperidin-4-amine] | > 20 | 0.1 to 1 |
| Cn1ncc2c(N3CCC(NCCCc4ccncc4)CC3)ncnc21 [Example 2.5, 1-(1-Methyl-1H-pyrazolo[3,4-d]pyrimidin-4-yl)-N-(3-(pyridin-4-yl)propyl)piperidin-4-amine] | > 20 | > 20 |
| Cn1ncc2c(NCc3ccc(S(N)(=O)=O)cc3)cnnc21 [Example 2.55, 4-(((1-Methyl-1H-pyrazolo[3,4-c]pyridazin-4-yl)amino)methyl)benzenesulfonamide] | 1 to 20 | 0.1 to 1 |
| Cn1ncc2c(NCc3ccc(S(N)(=O)=O)c(F)c3)ncnc21 [Example 2.1, 2-Fluoro-4-(((1-methyl-1H-pyrazolo[3,4-d]pyrimidin-4-yl)amino)methyl)-benzenesulfonamide] | 1 to 20 | < 0.1 |
| Cn1ncc2c(NCc3ccc(S(N)(=O)=O)cc3)nc(-c3ccccn3)nc21 [Example 2.10, 4-(((1-Methyl-6-(pyridin-2-yl)-1H-pyrazolo[3,4-d]pyrimidin-4-yl)amino)methyl)-benzenesulfonamide] | 1 to 20 | < 0.1 |
| Fc1ccc(CNc2nc(-c3ccccn3)nc3scc(-c4ccccc4)c23)cc1 [Example 1.4, N-(4-Fluorobenzyl)-5-phenyl-2-(pyridin-2-yl)thieno[2,3-d]pyrimidin-4-amine] | > 20 | > 20 |
| Cc1csc2c(N3CCC(NCCCc4ccc(Cl)cc4)CC3)ncnc12 [Example 3.28, N-(3-(4-Chlorophenyl)propyl)-1-(7-methylthieno[3,2-d]pyrimidin-4-yl)piperidin-4-amine] | > 20 | < 0.1 |
| NS(=O)(=O)c1ccc(CNc2nc(-c3ccccn3)nc3scc(-c4ccccc4)c23)cc1C(F)(F)F [Example 1.14, 4-(((5-Phenyl-2-(pyridin-2-yl)thieno[2,3-d]pyrimidin-4-yl)amino)methyl)-2-(trifluoromethyl)benzenesulfonamide] | 0.1 to 1 | < 0.1 |
| Cn1ncc2c(NCc3ccc(S(N)(=O)=O)cc3)ccnc21 [Example 2.60, 4-(((1-Methyl-1H-pyrazolo[3,4-b]pyridin-4-yl)amino)methyl)benzenesulfonamide] | 0.1 to 1 | < 0.1 |
